According to ChEMBL document CHEMBL1201862, “PubChem BioAssay data set” (2004):
Active and inactive are the calls of the source.

Legend:
[1] = tested on: HT-1080; test: cytotoxicity in HT1080 fibrosarcoma cells, cell-based, fluorescence readout (AID 620); type: functional; conditions: Homo sapiens
[2] = target: Luciferin 4-monooxygenase (Photinus pyralis, UniProt P08659); test: Counter Screen for Luciferase-based Assay Positives. [Related pubchem assays: 620, 618, 411 ]
[3] = A2780 ovarian cancer cell cytotoxicity, dose response, cytotoxicity control, plate reader, dry powder samples (AID 743046); type: functional, cell-based
[4] = target: Paired box protein Pax-8 (Homo sapiens, UniProt Q06710); test: inhibitors of PAX8-driven TPO luciferase reporter, dose response, RMG-I cells, cherry-pick (AID 687027); type: functional, cell-based;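 note: luciferase reporter driven by Pax8 target thyroperoxidase promoter measured by SteadyGlo luminescence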
[5] = cytotoxicity in OVCAR8 ovarian cancer cells, dose response, PAX8 project, cell-based, plate reader, dry powder samples (AID 743197); type: functional; conditions: OVCAR-8
[6] = IOSE-T80 ovarian epithelial cell cytotoxicity, dose response, cytotoxicity control for PAX8 inhibitor project, plate reader, dry powder samples (AID 743045); type: functional, cell-based
[7] = IGROV1 ovarian cancer cell cytotoxicity, dose response, PAX8 inhibitor project, plate reader, dry powder samples (AID 743043); type: functional, cell-based; conditions: IGROV-1
[8] = NIH:OVCAR-3 ovarian cancer cell cytotoxicity, dose response, PAX8 inhibitor project, plate reader, dry powder samples (AID 743044); type: functional, cell-based
[9] = target: Prothrombin (Homo sapiens, UniProt P00734); test: Thrombin 1536 HTS Dose Response Confirmation. [Related pubchem assays: 1046 (Thrombin 1536 HTS; hits were confirmed in this assay)]; type: functional
[10] = CellTiter-Glo luminescent dose response of DLD-1 viability loss (AID 1117352); type: functional
[11] = cytotoxicity toward Colo320 cells – cell-based, CellTiter-Glo luminescence, IC50, dose response (AID 1117334); type: functional; conditions: COLO 320
[12] = Concentration-dependent survival of SW480 colon cancer line, luminescence detection with CellTiter-Glo, half-maximal inhibitory concentration (AID 1117338); type: functional
[13] = SNU-C1 cell viability reduction, dose response, CellTiter-Glo luminescence (AID 1117323); type: functional, cell-based
[14] = cytotoxicity toward HCT116 cells – cell-based, CellTiter-Glo luminescence, IC50, dose response (AID 1117332); type: functional; conditions: HCT-116
[15] = RKO cell viability reduction, dose response, CellTiter-Glo luminescence (AID 1117322); type: functional
[16] = cytotoxicity toward HT-29 cells – cell-based, CellTiter-Glo luminescence, IC50, dose response (AID 1117330); type: functional
[17] = tested on: Streptococcus sp. 'group A'; test: growth inhibition of control SK(-) GAS strain, dose response, counter-screen for streptokinase expression inhibitor project, luminescence, kanamycin, BacTiterGlo, confirmation (AID 1900); type: functional, organism-based
[18] = target: Eukaryotic translation initiation factor 4E (Mus musculus, UniProt P63073); test: eIF4E–eIF4G protein interaction inhibitors, dose response, biochemical, TR-FRET (AID 855); type: functional;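 note: potency for disrupting eIF4E binding to eIF4GI seen as loss of FRET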
[19] = target: T1, Streptokinase A (Streptococcus pyogenes serotype M1, UniProt P10520); test: S. pyogenes streptokinase expression inhibitors, potency, dose response, plasminogen activation absorbance, OD405 (AID 1914); type: functional, Streptococcus pyogenes M1 GAS;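 note: secreted streptokinase activity via plasminogen activation per viability signal from cell pellet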
T1 sequence (P10520 whole entry): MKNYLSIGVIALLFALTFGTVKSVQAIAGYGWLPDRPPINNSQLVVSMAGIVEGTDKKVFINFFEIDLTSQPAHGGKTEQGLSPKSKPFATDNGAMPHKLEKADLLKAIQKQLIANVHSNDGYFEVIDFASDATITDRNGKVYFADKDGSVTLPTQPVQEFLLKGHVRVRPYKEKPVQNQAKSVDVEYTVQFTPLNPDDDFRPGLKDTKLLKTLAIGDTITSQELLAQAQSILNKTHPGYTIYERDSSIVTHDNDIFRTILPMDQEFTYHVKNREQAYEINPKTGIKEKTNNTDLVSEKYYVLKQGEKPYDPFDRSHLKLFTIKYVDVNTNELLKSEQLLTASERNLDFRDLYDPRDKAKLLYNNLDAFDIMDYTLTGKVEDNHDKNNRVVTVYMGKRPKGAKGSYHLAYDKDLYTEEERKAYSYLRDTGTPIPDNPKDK

[20] = target: Kallikrein-7 (Homo sapiens, UniProt P49862); test: Fluorescence Intensity-based biochemical primary high throughput dose response assay to identify activators of kallikrein-7 (K7) zymogen.
[21] = tested on: Streptococcus; test: Group A Streptococcus viability loss, dose response, counter-screen for streptokinase expression inhibitor project, luminescence, BacTiterGlo (AID 1915); type: functional, organism-based;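 note: potency for reduction of bacterial viability or growth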
[22] = target: T2, RNA-binding protein pos-1 (Caenorhabditis elegans, UniProt G5EF15); test: inhibitors of POS-1/mex-3 RNA binding, dose response, biochemical, fluorescence polarization (AID 1964);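 note: purified POS-1 fused to maltose binding protein made in E. coli; potency of compounds blocking POS-1 binding to fluorescent RNA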
T2 sequence (G5EF15 whole entry): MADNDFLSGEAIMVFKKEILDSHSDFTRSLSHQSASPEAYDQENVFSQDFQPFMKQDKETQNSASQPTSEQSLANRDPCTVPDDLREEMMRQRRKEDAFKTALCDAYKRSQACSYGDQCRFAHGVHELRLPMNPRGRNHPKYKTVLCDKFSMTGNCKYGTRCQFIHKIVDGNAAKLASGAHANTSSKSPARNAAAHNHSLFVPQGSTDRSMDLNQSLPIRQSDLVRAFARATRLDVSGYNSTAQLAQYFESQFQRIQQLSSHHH

[23] = Counterscreen for IDE inhibitors: Luminescence-based cell-based high throughput dose response assay to identify compounds that are cytotoxic to HEK cells. [Related pubchem assays: 434962 (Primary screen (IDE inhibitors in singlicate)), 449730 (Counterscreen (Cytotoxicity in triplicate)), 435028 (Confirmation (IDE inhibitors in triplicate)) …; type: functional; conditions: HEK293
[24] = target: T3, Zinc finger protein mex-5 (Caenorhabditis elegans, UniProt Q9XUB2); test: MEX-5/TCR-2 RNA interaction inhibitors, dose response, biochemical, C. elegans, fluorescence polarization (AID 1960)
T3 sequence (Q9XUB2 whole entry): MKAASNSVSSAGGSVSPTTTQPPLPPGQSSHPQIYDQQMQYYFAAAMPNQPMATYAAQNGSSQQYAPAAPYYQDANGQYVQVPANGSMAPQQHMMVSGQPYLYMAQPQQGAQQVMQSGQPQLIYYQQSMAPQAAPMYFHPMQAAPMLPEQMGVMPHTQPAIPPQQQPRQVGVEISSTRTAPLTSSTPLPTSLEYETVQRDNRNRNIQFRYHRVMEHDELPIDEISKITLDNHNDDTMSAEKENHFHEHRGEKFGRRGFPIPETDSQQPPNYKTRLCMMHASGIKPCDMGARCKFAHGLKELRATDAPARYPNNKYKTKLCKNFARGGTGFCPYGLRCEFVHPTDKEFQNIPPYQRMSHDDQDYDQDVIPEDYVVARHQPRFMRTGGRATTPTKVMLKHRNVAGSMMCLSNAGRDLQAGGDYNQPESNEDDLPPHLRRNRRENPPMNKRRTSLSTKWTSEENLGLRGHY

[25] = target: T4, Insulin-degrading enzyme (Homo sapiens, UniProt P14735); test: Dose Response: Fluorescence polarization-based cell-based high throughput dose response assay for inhibitors of insulin-degrading enzyme (IDE). [Related pubchem assays: 434962 (Primary screen (IDE inhibitors in singlicate)), 449730 (Counterscreen (Cytotoxicity in triplicate)), 435028 (Confirmation (IDE inhibitors in triplicate)), 434984 (Summary …; type: functional
T4 sequence (P14735 whole entry): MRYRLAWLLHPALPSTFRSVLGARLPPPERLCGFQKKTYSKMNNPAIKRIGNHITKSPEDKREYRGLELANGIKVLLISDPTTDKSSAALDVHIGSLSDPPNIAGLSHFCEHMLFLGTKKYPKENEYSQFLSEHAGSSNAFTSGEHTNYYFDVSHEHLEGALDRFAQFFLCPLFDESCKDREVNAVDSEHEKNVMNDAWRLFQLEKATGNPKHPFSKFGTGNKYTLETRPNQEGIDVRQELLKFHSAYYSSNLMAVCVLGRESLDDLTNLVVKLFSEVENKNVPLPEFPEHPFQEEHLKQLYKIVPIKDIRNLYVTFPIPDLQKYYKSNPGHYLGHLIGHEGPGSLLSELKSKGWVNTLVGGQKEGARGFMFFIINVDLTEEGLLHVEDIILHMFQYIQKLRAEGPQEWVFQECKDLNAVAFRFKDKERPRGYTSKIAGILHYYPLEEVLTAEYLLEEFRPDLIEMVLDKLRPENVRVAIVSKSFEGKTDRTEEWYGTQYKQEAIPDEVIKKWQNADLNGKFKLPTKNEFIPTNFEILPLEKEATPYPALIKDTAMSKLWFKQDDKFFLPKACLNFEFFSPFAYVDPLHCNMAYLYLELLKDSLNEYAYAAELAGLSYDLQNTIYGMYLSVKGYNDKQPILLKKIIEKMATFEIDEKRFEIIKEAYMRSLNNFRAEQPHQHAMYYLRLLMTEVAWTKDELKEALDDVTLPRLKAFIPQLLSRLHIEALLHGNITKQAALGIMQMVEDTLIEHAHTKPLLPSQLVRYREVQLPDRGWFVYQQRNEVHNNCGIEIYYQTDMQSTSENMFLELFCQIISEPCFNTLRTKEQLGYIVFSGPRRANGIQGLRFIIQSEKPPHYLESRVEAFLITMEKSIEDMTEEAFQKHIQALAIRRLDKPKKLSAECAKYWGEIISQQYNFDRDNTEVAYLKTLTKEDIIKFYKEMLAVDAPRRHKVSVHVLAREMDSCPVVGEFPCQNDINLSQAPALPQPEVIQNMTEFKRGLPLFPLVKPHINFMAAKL

Chain of Kallikrein-7 (P49862 whole entry): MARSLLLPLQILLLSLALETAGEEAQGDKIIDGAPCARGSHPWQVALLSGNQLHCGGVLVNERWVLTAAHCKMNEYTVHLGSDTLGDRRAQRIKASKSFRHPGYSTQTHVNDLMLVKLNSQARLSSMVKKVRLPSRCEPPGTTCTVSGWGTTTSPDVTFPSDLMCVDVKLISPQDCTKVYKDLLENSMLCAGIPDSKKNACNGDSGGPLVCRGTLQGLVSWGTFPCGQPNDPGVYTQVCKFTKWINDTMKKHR
Chain of Paired box protein Pax-8 (Q06710 whole entry): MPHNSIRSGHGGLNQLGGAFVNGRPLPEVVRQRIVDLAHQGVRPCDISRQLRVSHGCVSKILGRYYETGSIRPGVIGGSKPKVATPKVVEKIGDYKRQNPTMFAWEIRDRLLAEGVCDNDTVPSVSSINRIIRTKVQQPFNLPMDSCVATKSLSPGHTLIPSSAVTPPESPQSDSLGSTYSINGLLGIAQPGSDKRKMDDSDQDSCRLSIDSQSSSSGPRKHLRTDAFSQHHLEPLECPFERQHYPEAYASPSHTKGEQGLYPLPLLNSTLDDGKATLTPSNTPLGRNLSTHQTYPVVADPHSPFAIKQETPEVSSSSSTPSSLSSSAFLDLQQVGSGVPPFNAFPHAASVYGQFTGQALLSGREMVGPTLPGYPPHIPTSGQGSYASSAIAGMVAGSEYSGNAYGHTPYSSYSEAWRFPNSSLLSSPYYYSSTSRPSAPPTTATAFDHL
Chain of Luciferin 4-monooxygenase (P08659 whole entry): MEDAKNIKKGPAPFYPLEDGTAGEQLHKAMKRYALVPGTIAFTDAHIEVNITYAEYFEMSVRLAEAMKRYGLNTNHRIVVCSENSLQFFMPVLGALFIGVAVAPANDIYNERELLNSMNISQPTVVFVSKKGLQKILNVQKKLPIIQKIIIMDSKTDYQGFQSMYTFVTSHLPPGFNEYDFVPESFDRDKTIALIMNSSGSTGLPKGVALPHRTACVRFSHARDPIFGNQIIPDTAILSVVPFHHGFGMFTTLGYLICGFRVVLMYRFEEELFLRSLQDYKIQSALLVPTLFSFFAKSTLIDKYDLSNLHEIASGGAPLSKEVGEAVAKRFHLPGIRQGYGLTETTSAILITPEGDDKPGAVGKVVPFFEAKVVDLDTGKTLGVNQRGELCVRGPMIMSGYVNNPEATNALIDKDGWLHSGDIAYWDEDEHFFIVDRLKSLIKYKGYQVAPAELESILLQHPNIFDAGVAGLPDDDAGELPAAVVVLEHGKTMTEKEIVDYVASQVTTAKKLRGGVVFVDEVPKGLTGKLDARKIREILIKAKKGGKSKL
Chain of Eukaryotic translation initiation factor 4E (P63073 whole entry): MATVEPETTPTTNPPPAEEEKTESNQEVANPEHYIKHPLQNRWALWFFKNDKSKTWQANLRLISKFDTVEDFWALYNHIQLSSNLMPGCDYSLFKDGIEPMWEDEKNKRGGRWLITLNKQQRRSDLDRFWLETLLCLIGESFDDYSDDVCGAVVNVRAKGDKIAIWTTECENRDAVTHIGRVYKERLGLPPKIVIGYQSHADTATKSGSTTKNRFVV

SMILES: Cc1ccc(NC(=O)N2CCc3ccccc32)cc1
- EC50 [1]: > 50 µM (not active)
- EC50 [2]: 720 nM (active)

SMILES: C[C@H](CO)N1C[C@H](C)[C@@H](CN(C)Cc2ccncc2)Oc2ccc(NC(=O)Nc3ccc(C(F)(F)F)cc3)cc2CC1=O
- AC50 [3]: 32.5 µM (active)
- AC50 [4]: 5.69 µM (active)
- AC50 [5]: > 70 µM (inactive)
- AC50 [6]: 37.6 µM (active)
- AC50 [7]: 26.8 µM (active)
- AC50 [8]: 22.8 µM (active)

SMILES: CCc1ccccc1N1C(=O)CC(=O)NC1=O
- IC50 [9]: > 50 µM (not active)

SMILES: NC(=O)N/N=C/c1ccc([N+](=O)[O-])o1 [NITROFURAZONE]
- IC50 [10]: > 20 µM (inactive)
- IC50 [11]: > 20 µM (inactive)
- IC50 [12]: > 20 µM (inactive)
- IC50 [13]: > 20 µM (inactive)
- IC50 [14]: > 20 µM (inactive)
- IC50 [15]: > 20 µM (inactive)
- IC50 [16]: > 20 µM (inactive)

SMILES: Nc1ccc2[nH]c(-c3cc(Cl)c(N)c(Cl)c3)nc2c1
- EC50 [17]: 42.8 µM (active)
- IC50 [18]: > 64 µM (inactive)
- EC50 [19]: > 150 µM (not active)
- EC50 [20]: > 69.5 µM (inactive)
- EC50 [21]: > 150 µM (not active)

SMILES: COc1ccc(-n2c(C)cc(/C=C3\SC(=S)N(Cc4ccco4)C3=O)c2C)cc1
- EC50 [22]: > 300 µM (not active)
- IC50 [23]: 38 µM (not active)
- EC50 [24]: 121 µM (active)
- IC50 [25]: > 55.9 µM (not active)

SMILES: N=c1c(C(=O)NCC2CCCO2)cc2c(=O)n3ccccc3nc2n1C1CCCC1 (centres undefined)
- EC50 [20]: 24.4 µM (inactive)

SMILES: Cc1cccc(C(=O)Nc2ccnc(-c3cccnc3)n2)c1
- IC50 [23]: 35.7 µM (not active)
- IC50 [25]: 7 µM (active)

SMILES: CC(c1nc2ccccc2[nH]1)n1c(=O)c(-c2cccs2)nc2ccccc21 (centres undefined)
- EC50 [20]: 8.14 µM (active)
